Measured values as given in the supplement of paper PMC13207355.

Key:
Settings in all cases: exposure time: 72 h
FT3469 [1] = normal neural stem cell line; test: surviving fraction (nuclei count normalised to DMSO); higher = more cells surviving (less toxic)
E34 [2] = patient-derived glioblastoma stem cells of proneural subtype; test: as above
E21 [3] = patient-derived glioblastoma stem cells of mesenchymal subtype; test: as above
E28 [4] = patient-derived glioblastoma stem cells of classical subtype; test: as above
E31 [5] = patient-derived glioblastoma stem cells of proneural subtype; test: as above
E13 [6] = patient-derived glioblastoma stem cells of classical subtype; test: as above
E57 [7] = patient-derived glioblastoma stem cells of mesenchymal subtype; test: as above
FT3469 [8] = test: phenotypic distance (Euclidean, principal components) from DMSO controls (arbitrary units); higher = stronger morphological change
E34 [9] = test: as above
E21 [10] = test: as above
E28 [11] = test: as above
E31 [12] = test: as above
E13 [13] = test: as above
E57 [14] = test: as above
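For phenotypic distance (Euclidean, principal components) from DMSO controls in this document: cell Painting imaging in 384-well plates, CellProfiler features reduced to at least 20 principal components, Euclidean distance versus same-plate DMSO vehicle wells (0.1% v/v), median over six images per well.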
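For surviving fraction (nuclei count normalised to DMSO) in this document: nuclei counted by high-content imaging of Hoechst-stained cells in laminin-coated 384-well plates, relative to 0.1% DMSO vehicle wells, with staurosporine as cell-death control.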

O=C(CCBr)N1CCN(C(=O)CCBr)CC1 [Pipobroman]
Settings | phenotypic distance | surviving fraction
E13 [6], 4.1 nM | – | 0.929
E13 [6], 12.3 nM | – | 0.984
E13 [6], 37 nM | – | 1.02
E13 [6], 111.1 nM | – | 0.921
E13 [6], 333.3 nM | – | 0.977
E13 [6], 1000 nM | – | 0.982
E13 [6], 3000 nM | – | 0.98
E13 [13], 4.1 nM | 0.472 | –
E13 [13], 12.3 nM | 0.7 | –
E13 [13], 37 nM | 0.541 | –
E13 [13], 111.1 nM | 0.407 | –
E13 [13], 333.3 nM | 0.764 | –
E13 [13], 1000 nM | 0.638 | –
E13 [13], 3000 nM | 0.745 | –
E21 [3], 4.1 nM | – | 1.13
E21 [3], 12.3 nM | – | 0.912
E21 [3], 37 nM | – | 1.01
E21 [3], 111.1 nM | – | 0.966
E21 [3], 333.3 nM | – | 1.05
E21 [3], 1000 nM | – | 0.836
E21 [3], 3000 nM | – | 0.811
E21 [10], 4.1 nM | 0.8 | –
E21 [10], 12.3 nM | 0.777 | –
E21 [10], 37 nM | 0.578 | –
E21 [10], 111.1 nM | 0.528 | –
E21 [10], 333.3 nM | 0.76 | –
E21 [10], 1000 nM | 0.889 | –
E21 [10], 3000 nM | 2.2 | –
E28 [4], 4.1 nM | – | 0.961
E28 [4], 12.3 nM | – | 1.13
E28 [4], 37 nM | – | 0.966
E28 [4], 111.1 nM | – | 0.954
E28 [4], 333.3 nM | – | 0.979
E28 [4], 1000 nM | – | 0.931
E28 [4], 3000 nM | – | 0.713
E28 [11], 4.1 nM | 0.503 | –
E28 [11], 12.3 nM | 0.763 | –
E28 [11], 37 nM | 0.907 | –
E28 [11], 111.1 nM | 0.719 | –
E28 [11], 333.3 nM | 0.82 | –
E28 [11], 1000 nM | 0.794 | –
E28 [11], 3000 nM | 1.56 | –
E31 [5], 4.1 nM | – | 0.99
E31 [5], 12.3 nM | – | 0.958
E31 [5], 37 nM | – | 0.924
E31 [5], 111.1 nM | – | 0.976
E31 [5], 333.3 nM | – | 0.859
E31 [5], 1000 nM | – | 0.759
E31 [5], 3000 nM | – | 0.716
E31 [12], 4.1 nM | 0.424 | –
E31 [12], 12.3 nM | 0.596 | –
E31 [12], 37 nM | 0.531 | –
E31 [12], 111.1 nM | 0.433 | –
E31 [12], 333.3 nM | 0.574 | –
E31 [12], 1000 nM | 1.19 | –
E31 [12], 3000 nM | 1.45 | –
E34 [2], 4.1 nM | – | 1.03
E34 [2], 12.3 nM | – | 0.865
E34 [2], 37 nM | – | 1.08
E34 [2], 111.1 nM | – | 1.06
E34 [2], 333.3 nM | – | 1.01
E34 [2], 1000 nM | – | 0.892
E34 [2], 3000 nM | – | 1.1
E34 [9], 4.1 nM | 0.724 | –
E34 [9], 12.3 nM | 0.45 | –
E34 [9], 37 nM | 0.596 | –
E34 [9], 111.1 nM | 0.698 | –
E34 [9], 333.3 nM | 0.871 | –
E34 [9], 1000 nM | 0.646 | –
E34 [9], 3000 nM | 0.982 | –
E57 [7], 4.1 nM | – | 1.05
E57 [7], 12.3 nM | – | 1.02
E57 [7], 37 nM | – | 1.06
E57 [7], 111.1 nM | – | 1.07
E57 [7], 333.3 nM | – | 1.07
E57 [7], 1000 nM | – | 0.958
E57 [7], 3000 nM | – | 0.816
E57 [14], 4.1 nM | 0.542 | –
E57 [14], 12.3 nM | 0.868 | –
E57 [14], 37 nM | 0.587 | –
E57 [14], 111.1 nM | 0.428 | –
E57 [14], 333.3 nM | 0.404 | –
E57 [14], 1000 nM | 0.464 | –
E57 [14], 3000 nM | 1.79 | –
FT3469 [1], 4.1 nM | – | 1.12
FT3469 [1], 12.3 nM | – | 1.08
FT3469 [1], 37 nM | – | 0.946
FT3469 [1], 111.1 nM | – | 1
FT3469 [1], 333.3 nM | – | 1.05
FT3469 [1], 1000 nM | – | 0.961
FT3469 [1], 3000 nM | – | 0.86
FT3469 [8], 4.1 nM | 0.541 | –
FT3469 [8], 12.3 nM | 0.755 | –
FT3469 [8], 37 nM | 0.771 | –
FT3469 [8], 111.1 nM | 0.734 | –
FT3469 [8], 333.3 nM | 0.615 | –
FT3469 [8], 1000 nM | 1.02 | –
FT3469 [8], 3000 nM | 1.65 | –
